From patent US20250268830A1, “SUSTAINED RELEASE INJECTABLE PHARMACEUTICAL FORMULATION OF LEVOTHYROXINE AND PROCESS FOR PREPARATION THEREOF” (PHARMATHEN S.A., priority 2021, published 2025)

Legend:
[1] = solubility of the API in MeOH; assay type: physicochemical; details: 20° C.
Method: The solubility at 20° C. of the API in MeOH was determined as follows: approximately 50 mg Levothyroxine sodium were weighed in a vial. Methanol was gradually added until the solution became clear.

[2] = LVX solubility in DCM/MeOH 10/3 with PLGA (evaluation of maximum theoretical drug loading); assay type: physicochemical
Method: A quantity of approximately 0.25 g of polymer and varying quantities of LVX corresponding to theoretical drug loading values 1%, 2%, 3% and 4% were weighed in four vials. A DCM/MeOH mixture at a ratio of 10/3 (to ensure the polymer is always dissolved) was gradually added in each vial. The respective PLGA (PURASORB PDLG 5002A) concentrations, % LVX content and LVX solubility were evaluated and are presented in the table below.

solubility in MeOH [1]: 3.41 % mass LVX/mass of MeOH | ratio LVX/(DCM+MeOH) at which levothyroxine is dissolved ([2]; DCM/MeOH 10/3 with PLGA): below 0.1% | LVX Solubility ([2]; Vial 1, 1.0% TDL, DCM+MeOH 2.5 g, 0.11% LVX in mix, 13.01% PLGA in DCM): Insoluble | LVX Solubility ([2]; Vial 1, 1.0% TDL, DCM+MeOH 3.3 g, 0.08% LVX in mix, 9.99% PLGA in DCM): Almost Clear | LVX Solubility ([2]; Vial 1, 1.0% TDL, DCM+MeOH 4.3 g, 0.06% LVX in mix, 7.63% PLGA in DCM): Clear | LVX Solubility ([2]; Vial 1, 1.0% TDL, DCM+MeOH 5.5 g, 0.05% LVX in mix, 5.92% PLGA in DCM): Clear | LVX Solubility ([2]; Vial 2, 2.0% TDL, DCM+MeOH 2.6 g, 0.20% LVX in mix, 12.58% PLGA in DCM): Slurry | LVX Solubility ([2]; Vial 2, 2.0% TDL, DCM+MeOH 3.3 g, 0.16% LVX in mix, 10.05% PLGA in DCM): Sluny | LVX Solubility ([2]; Vial 2, 2.0% TDL, DCM+MeOH 4.3 g, 0.12% LVX in mix, 7.69% PLGA in DCM): Less Slurry | LVX Solubility ([2]; Vial 2, 2.0% TDL, DCM+MeOH 5.6 g, 0.09% LVX in mix, 5.92% PLGA in DCM): Almost Clear | LVX Solubility ([2]; Vial 3, 3.0% TDL, DCM+MeOH 2.6 g, 0.30% LVX in mix, 12.69% PLGA in DCM): Shary | LVX Solubility ([2]; Vial 3, 3.0% TDL, DCM+MeOH 3.3 g, 0.24% LVX in mix, 9.97% PLGA in DCM): Slurry | LVX Solubility ([2]; Vial 3, 3.0% TDL, DCM+MeOH 4.2 g, 0.18% LVX in mix, 7.70% PLGA in DCM): Less Shury | LVX Solubility ([2]; Vial 3, 3.0% TDL, DCM+MeOH 5.5 g, 0.14% LVX in mix, 5.95% PLGA in DCM): Less Slurry | LVX Solubility ([2]; Vial 3, 3.0% TDL, DCM+MeOH 7.7 g, 0.10% LVX in mix, 4.25% PLGA in DCM): Almost Clear | LVX Solubility ([2]; Vial 3, 3.0% TDL, DCM+MeOH 9.6 g, 0.08% LVX in mix, 3.39% PLGA in DCM): Almost Clear | LVX Solubility ([2]; Vial 3, 3.0% TDL, DCM+MeOH 12.3 g, 0.06% LVX in mix, 2.65% PLGA in DCM): Clear | LVX Solubility ([2]; Vial 4, 4.0% TDL, DCM+MeOH 2.6 g, 0.39% LVX in mix, 12.33% PLGA in DCM): Slurry | LVX Solubility ([2]; Vial 4, 4.0% TDL, DCM+MeOH 3.3 g, 0.31% LVX in mix, 9.82% PLGA in DCM): Shary | LVX Solubility ([2]; Vial 4, 4.0% TDL, DCM+MeOH 4.3 g, 0.24% LVX in mix, 7.56% PLGA in DCM): Slurry | LVX Solubility ([2]; Vial 4, 4.0% TDL, DCM+MeOH 5.6 g, 0.19% LVX in mix, 5.87% PLGA in DCM): Less Slurry
SMILES: N[C@@H](Cc1cc(I)c(Oc2cc(I)c(O)c(I)c2)c(I)c1)C(=O)O [Levothyroxine sodium]
